Measurements as given in ChEMBL document CHEMBL3243969, “Synthesis and chemical carcinogen inhibitory activity of 2-tert-butyl-4-hydroxyanisole” (J Med Chem, 1979).
Several values for one entry are separate records, joined by “and”; a condition that tells them apart may be missing. Equal values may be shown once.

How the values were obtained:
Mus musculus [1] = assay: Toxicity in ICR/Ha mouse forestomach assessed as diet intake at 5 mg/kg administered through diet for 1 week prior to benzo[alpha]pyrene challenge and continued additional 2 days post last dose of benzo[alpha]pyrene (reference value: 4.3 g/day); assay type: organism-based, Stomach; design: dose 5 mg/kg; details: in vivo, po
Mus musculus [2] = assay: (§1) Antineoplastic activity in ICR/Ha mouse forestomach assessed as inhibition of benzo[alpha]pyrene-induced tumor growth at 5 mg/kg administered through diet for 1 week prior to benzo[alpha]pyrene challenge and continued additional 2 days post last dose of benzo[alpha]pyrene by dissecting microscopic analysis relative to control; assay type: functional, Stomach
[3] = Antioxidant activity of the compound relative to control; assay type: functional
Mus musculus [4] = assay: as §1, with “decrease in” for “inhibition of”, “incidence” for “growth”; assay type: functional, Stomach; design: scale not given: the % may be the effect or the level left
Mus musculus [5] = assay: Toxicity in ICR/Ha mouse forestomach assessed as body weight gained at 5 mg/kg administered through diet for 1 week prior to benzo[alpha]pyrene challenge and continued additional 2 days post last dose of benzo[alpha]pyrene relative to control; assay type: organism-based, Stomach; design: dose 5 mg/kg; details: in vivo, po

**Q.** For `COc1ccc(O)c(C(C)(C)C)c1.COc1ccc(O)cc1C(C)(C)C` [BUTYLATED HYDROXYANISOLE], which Activity (Mus musculus [1]) is on record?
**A.** 3.6 g/day and 3.7 g/day

**Q.** And the TGI (Mus musculus [2]; 5 mg/kg)?
**A.** 50%

**Q.** What about the inhibition in vivo at 5 mg/kg (Mus musculus [2]; Mus musculus, ICR/Ha, Stomach, read-out: TGI) of the same compound?
**A.** 70%

**Q.** And the fold change (FC) [3]?
**A.** 1.1 and 0.4

**Q.** What about the Activity (Mus musculus [4]) of the same compound?
**A.** 30% and 10%

**Q.** What about the Activity (Mus musculus [5]) of the same compound?
**A.** 10.8 g and 7.4 g
